Results from PubChem BioAssay (NCI).
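Exposure lasted 48 hours, with cells grown in 96-well plates and compounds tested at five concentrations. GI50 marks 50% less growth. TGI: total growth inhibition.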

Columns and labels:
Assay in all cases: NCI tumour cell line growth inhibition, 48 h
[1] = tested on: OVCAR-3 ovarian
[2] = tested on: SK-MEL-28 melanoma
[3] = tested on: HCC-2998 colon
[4] = tested on: HCT-116 colon
[5] = tested on: UACC-257 melanoma
[6] = tested on: TK-10 renal
[7] = tested on: HOP-62 NSCLC
[8] = tested on: NCI-H23 lung
[9] = tested on: SF-539 CNS
[10] = tested on: MDA-MB-435

Compound	TGI [1]	TGI [2]	TGI [3]	TGI [4]	TGI [5]	TGI [6]	TGI [7]	TGI [8]	TGI [9]	TGI [10]	GI50 [1]	GI50 [2]	GI50 [3]	GI50 [10]	GI50 [4]	GI50 [5]	GI50 [6]	GI50 [7]	GI50 [8]	GI50 [9]
O=C(O)COc1ccc(C(=O)/C(SS/C(C(=O)c2ccc(OCC(=O)O)c(Cl)c2Cl)=C2\C=C(c3ccc(Cl)cc3)SS2)=C2/C=C(c3ccc(Cl)cc3)SS2)c(Cl)c1Cl	26.6 µM	56.7 µM	25.3 µM	22.8 µM	> 100 µM	> 100 µM	> 100 µM	40.8 µM	17.9 µM	–	–	–	–	–	–	–	–	–	–	–
C(=N\Nc1ccccc1)/c1nc2ccccc2nc1/C=N/Nc1ccccc1	31.9 µM	31.7 µM	25.3 µM	25.7 µM	58.2 µM	31.6 µM	34.6 µM	27.2 µM	30.8 µM	–	–	–	–	–	–	–	–	–	–	–
O=C(NC(=O)c1ccccc1[N+](=O)[O-])Nc1ccc(Oc2ncc(Cl)cn2)c([N+](=O)[O-])c1	> 7.67 µM	–	–	> 100 µM	> 100 µM	> 100 µM	> 100 µM	> 28 µM	8.38 µM	0.197 µM	–	–	–	–	–	–	–	–	–	–
N/C(=N/N=C/c1ccccc1)N/N=C\c1ccccc1	7.8 µM	33.3 µM	37.8 µM	> 100 µM	27.6 µM	> 100 µM	> 100 µM	> 100 µM	–	6.61 µM	2.66 µM	10.7 µM	7.21 µM	1.76 µM	4.5 µM	7.5 µM	10.7 µM	9.71 µM	6.78 µM	–
COc1cc(O)c2c(c1)O[C@@H]1OCC[C@H]21	> 100 µM	> 100 µM	> 100 µM	> 100 µM	> 100 µM	> 100 µM	> 100 µM	> 100 µM	> 100 µM	–	–	–	–	–	–	–	–	–	–	–
COc1ccc(Cc2c(=O)[nH]nc3ccccc23)cc1	> 100 µM	> 100 µM	> 100 µM	> 100 µM	> 100 µM	> 100 µM	> 100 µM	> 100 µM	> 100 µM	–	–	–	–	–	–	–	–	–	–	–
CC[C@@]1(O)C(=O)OCc2c1cc1n(c2=O)Cc2cc3cccc([N+](=O)[O-])c3nc2-1	43.5 µM	> 100 µM	31.8 µM	13.6 µM	36.9 µM	> 100 µM	0.582 µM	4.19 µM	2.89 µM	–	4.92 µM	43.9 µM	4.92 µM	–	1.58 µM	2.81 µM	21 µM	0.142 µM	0.486 µM	0.478 µM
c1ccc2cc(NCNc3ccc4ccccc4c3)ccc2c1	29.2 µM	> 88.9 µM	–	43.4 µM	20.9 µM	> 67.6 µM	51.3 µM	30.5 µM	71.3 µM	3.32 µM	–	–	–	–	–	–	–	–	–	–
COc1cc(C(=O)N2CCN(c3ccccc3)CC2)c2ccccc2n1	0.0687 µM	> 100 µM	0.486 µM	28.1 µM	> 100 µM	> 100 µM	> 100 µM	> 100 µM	–	–	0.0241 µM	> 100 µM	0.0696 µM	–	0.055 µM	0.108 µM	0.287 µM	0.119 µM	0.225 µM	0.0973 µM
Cc1ccc(NC(=O)c2cc3ccccc3c(N=Nc3cc(S(=O)(=O)O)ccc3O)c2O)c(C)c1	> 100 µM	> 100 µM	–	> 100 µM	> 100 µM	> 100 µM	> 100 µM	56.6 µM	–	> 100 µM	–	–	–	–	–	–	–	–	–	–
O=c1c2ccccc2nc(/C=C(\O)c2ccncc2)n1-c1ccc(Cl)cc1	> 100 µM	> 100 µM	–	> 100 µM	> 100 µM	> 100 µM	> 100 µM	> 100 µM	–	–	–	–	–	–	–	–	–	–	–	–
O=C(NCc1cccnc1)C1COc2cc(-c3cc(=O)c4ccccc4o3)ccc2O1 (stereo unspecified)	> 100 µM	> 28.7 µM	> 100 µM	> 100 µM	> 100 µM	> 83.4 µM	24.8 µM	> 100 µM	16.4 µM	–	–	–	–	–	–	–	–	–	–	–
C=C1C(=O)O[C@H]2[C@H]1CC/C(C=Nc1c(N)cc(C(F)(F)F)cc1C(F)(F)F)=C\CC[C@@]1(C)O[C@@H]21	2.86 µM	3.83 µM	3.3 µM	2.52 µM	3.14 µM	2.69 µM	4.19 µM	4.17 µM	–	6.05 µM	1.41 µM	1.87 µM	1.69 µM	2.03 µM	1.06 µM	1.59 µM	1.38 µM	2 µM	1.77 µM	–
Nc1nc(Cl)cc(NCC(O)CO)n1 (stereo unspecified)	> 100 µM	> 100 µM	> 100 µM	> 100 µM	> 100 µM	> 100 µM	> 100 µM	> 100 µM	> 100 µM	–	–	–	–	–	–	–	–	–	–	–
Cc1nn2c(nc1=O)sc1ccc3ccccc3c12	> 100 µM	> 100 µM	> 100 µM	> 100 µM	> 100 µM	> 100 µM	> 100 µM	> 100 µM	> 100 µM	–	–	–	–	–	–	–	–	–	–	–
O=[N+]([O-])c1cc([N+](=O)[O-])c(/C=C/c2ccc(Cl)c(Cl)c2)cc1/C=C/c1ccc(Cl)c(Cl)c1	59.8 µM	59.2 µM	> 100 µM	–	51.3 µM	> 100 µM	–	50.8 µM	51.5 µM	–	–	–	–	–	–	–	–	–	–	–
CCCCC(C(=O)CCC(=O)Nc1ccc(Cl)c(Cl)c1)C(=O)C(C)C (stereo unspecified)	> 100 µM	> 100 µM	> 100 µM	> 100 µM	> 100 µM	> 100 µM	> 100 µM	> 100 µM	> 100 µM	–	–	–	–	–	–	–	–	–	–	–
O=C([O][Hg][CH2]C1OCCOC1[CH2][Hg][O]C(=O)c1ccccc1)c1ccccc1 (stereo unspecified)	3.8 µM	16.8 µM	30.8 µM	8.37 µM	3.4 µM	3.35 µM	–	21.3 µM	29.7 µM	29.3 µM	2.16 µM	5.13 µM	17.1 µM	15.9 µM	4.21 µM	1.89 µM	1.91 µM	–	8.21 µM	13.3 µM
CC1(Br)CC2OC3(Br)C=CC(C)(O)C2(CC1=O)C3(C)C (stereo unspecified)	> 100 µM	> 100 µM	> 100 µM	> 100 µM	> 100 µM	> 100 µM	> 100 µM	> 100 µM	> 100 µM	–	–	–	–	–	–	–	–	–	–	–
Nc1nc(N)c(-c2ccccc2)c(C(=O)Nc2ccccc2)n1	> 100 µM	> 100 µM	–	> 100 µM	> 100 µM	> 100 µM	–	> 100 µM	> 100 µM	–	–	–	–	–	–	–	–	–	–	–
